Patent US20260027116A1, “Methods of Treating Chronic Graft-Versus-Host Disease Following Allogeneic Hematopoietic Stem Cell Transplantation” (Kadmon Corporation, LLC, priority 2022, published 2026)

Experiments:
[1] = clinical drug interaction studies, effects of other drugs on belumosudil; format: in vivo, human; details: healthy subjects
CYP2C19 = CYP2C19 (Homo sapiens, UniProt P33261); test: enzyme inhibition in vitro; format: in vitro ADME
[2] = pharmacokinetics in specific populations (population pharmacokinetics); set-up: species or system human; details: in vivo
cGVHD symptom burden = test: Example 1: Lee Symptom Scale (LSS) score; format: in vivo, human
Procedure: Lee Symptom Scale (LSS) summary score measures the effect on patients' functioning and well-being. The Lee Symptom Scale is a 30-item scale developed to measure the symptoms of cGVHD and is described in Lec S J, Cook E F, Soiffer R, Antin J H. Development and validation of a scale to measure symptoms of chronic graft-versushost disease. Biol Blood Marrow Transplant 2002; 8:444-452.
All responses were assessed by the investigators.
Change From Baseline in Overall Score on Lee cGvHD Symptom Scale at Specified Time Points. Lee cGVHD symptom scale, a patient-reported symptom scale used to measure symptom burden and has 7 subscales (Skin, Eyes and Mouth, Breathing, Eating and Digestion, Muscles and Joints, Energy, and Mental and Emotional) with ratings as follows: 0—Not at all, 1—Slightly, 2—Moderately, 3—Quite a bit, 4—Extremely, with lower values representing better outcome. Score for each subscale was normalized to a score ranged from 0 to 100, where higher score=worse symptoms. An overall score was calculated as average of these 7 subscales. EOT visit was performed within 3 days after the participant's last dose of study drug. Baseline value was defined as valid and last non-missing value obtained within 28 days prior to participant receiving first study medication. […] Analysis was performed on mITT population. Here, ‘number analyzed’=participants with available data for each specified category. Here, ‘0’ in the number analyzed field signifies that none of the participants were available for the analysis at the specified time points.

CYP2C19, sequence (P33261 whole entry): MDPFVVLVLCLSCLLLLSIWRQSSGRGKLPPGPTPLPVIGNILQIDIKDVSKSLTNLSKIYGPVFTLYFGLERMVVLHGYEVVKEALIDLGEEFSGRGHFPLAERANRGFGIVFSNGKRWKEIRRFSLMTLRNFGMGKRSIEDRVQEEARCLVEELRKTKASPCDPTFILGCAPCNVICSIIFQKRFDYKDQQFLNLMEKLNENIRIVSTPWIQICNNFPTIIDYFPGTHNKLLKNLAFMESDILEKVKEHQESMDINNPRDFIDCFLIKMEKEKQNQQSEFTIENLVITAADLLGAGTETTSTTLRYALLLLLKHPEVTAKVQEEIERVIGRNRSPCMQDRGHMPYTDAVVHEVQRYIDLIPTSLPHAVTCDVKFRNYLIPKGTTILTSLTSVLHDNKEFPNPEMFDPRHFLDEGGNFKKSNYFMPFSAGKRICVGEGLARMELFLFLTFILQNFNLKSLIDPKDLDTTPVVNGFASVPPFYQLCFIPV

CC(C)NC(=O)COc1cccc(-c2nc(Nc3ccc4[nH]ncc4c3)c3ccccc3n2)c1 [Belumosudil, 2-{3-[4-(1H-indazol-5-ylamino)-2-quinazolinyl]phenoxy}-N-(propan-2-yl) acetamide]
decrease of belumosudil AUC with omeprazole [1]: 47%
decrease of belumosudil AUC with rabeprazole [1]: 80%
decrease of belumosudil AUC with rifampin [1]: 72%
decrease of belumosudil Cmax with omeprazole [1]: 68%
decrease of belumosudil Cmax with rabeprazole [1]: 87%
decrease of belumosudil Cmax with rifampin [1]: 59%
effect of itraconazole on belumosudil exposure [1]: no clinically meaningful effect
inhibition of CYP2C19 (CYP2C19): inhibitor
effect of age and body weight on pharmacokinetics (population pharmacokinetic data) [2]: no clinically meaningful effect
pharmacokinetic differences by age, sex, weight, mild to moderate renal impairment [2]: No clinically significant differences
LSS improvement, nonresponder, n/N (cGVHD symptom burden; Cohort 1 200 mg QD): 1/6
LSS improvement, responder, n/N (cGVHD symptom burden; Cohort 1 200 mg QD): 8/11
Change From Baseline in Overall Score on Lee cGvHD Symptom Scale, Mean (Standard Deviation) (cGVHD symptom burden; Cohort 1: 200 mg QD, Cycle 3, Day 1): −3.0 (8.5) score on a scale
Change From Baseline in Overall Score on Lee cGvHD Symptom Scale, Mean (Standard Deviation) (cGVHD symptom burden; Cohort 1: 200 mg QD, Cycle 5, Day 1): −3.7 (11.0) score on a scale
Change From Baseline in Overall Score on Lee cGvHD Symptom Scale, Mean (Standard Deviation) (cGVHD symptom burden; Cohort 1: 200 mg QD, Cycle 7, Day 1): −4.9 (8.4) score on a scale
Change From Baseline in Overall Score on Lee cGvHD Symptom Scale, Mean (Standard Deviation) (cGVHD symptom burden; Cohort 1: 200 mg QD, Cycle 9, Day 1): −3.7 (10.7) score on a scale
Change From Baseline in Overall Score on Lee cGvHD Symptom Scale, Mean (Standard Deviation) (cGVHD symptom burden; Cohort 1: 200 mg QD, Cycle 11, Day 1): −3.4 (11.5) score on a scale
Change From Baseline in Overall Score on Lee cGvHD Symptom Scale, Mean (Standard Deviation) (cGVHD symptom burden; Cohort 1: 200 mg QD, Cycle 12, Day 1): −3.9 (8.1) score on a scale
Change From Baseline in Overall Score on Lee cGvHD Symptom Scale, Mean (Standard Deviation) (cGVHD symptom burden; Cohort 1: 200 mg QD, Cycle 13, Day 1): −5.8 (14.7) score on a scale
Change From Baseline in Overall Score on Lee cGvHD Symptom Scale, Mean (Standard Deviation) (cGVHD symptom burden; Cohort 1: 200 mg QD, Cycle 14, Day 1): −1.6 (17.1) score on a scale
Change From Baseline in Overall Score on Lee cGvHD Symptom Scale, Mean (Standard Deviation) (cGVHD symptom burden; Cohort 1: 200 mg QD, Cycle 15, Day 1): −4.8 (15.8) score on a scale
Change From Baseline in Overall Score on Lee cGvHD Symptom Scale, Mean (Standard Deviation) (cGVHD symptom burden; Cohort 1: 200 mg QD, Cycle 16, Day 1): −4.6 (16.1) score on a scale
Change From Baseline in Overall Score on Lee cGvHD Symptom Scale, Mean (Standard Deviation) (cGVHD symptom burden; Cohort 1: 200 mg QD, Cycle 27, Day 1): −3.5 (25.3) score on a scale
Change From Baseline in Overall Score on Lee cGvHD Symptom Scale, Mean (Standard Deviation) (cGVHD symptom burden; Cohort 1: 200 mg QD, Cycle 28, Day 1): 4.4 (13.4) score on a scale
Change From Baseline in Overall Score on Lee cGvHD Symptom Scale, Mean (Standard Deviation) (cGVHD symptom burden; Cohort 1: 200 mg QD, Cycle 29, Day 1): −2.8 (23.7) score on a scale
Change From Baseline in Overall Score on Lee cGvHD Symptom Scale, Mean (Standard Deviation) (cGVHD symptom burden; Cohort 1: 200 mg QD, Cycle 30, Day 1): 9.0 (7.5) score on a scale
Change From Baseline in Overall Score on Lee cGvHD Symptom Scale, Mean (Standard Deviation) (cGVHD symptom burden; Cohort 1: 200 mg QD, Cycle 31, Day 1): −4.8 (27.9) score on a scale
Change From Baseline in Overall Score on Lee cGvHD Symptom Scale, Mean (Standard Deviation) (cGVHD symptom burden; Cohort 1: 200 mg QD, Cycle 32, Day 1): 10.3 (6.9) score on a scale
Change From Baseline in Overall Score on Lee cGvHD Symptom Scale, Mean (Standard Deviation) (cGVHD symptom burden; Cohort 1: 200 mg QD, Cycle 33, Day 1): 0.5 (20.7) score on a scale
Change From Baseline in Overall Score on Lee cGvHD Symptom Scale, Mean (Standard Deviation) (cGVHD symptom burden; Cohort 1: 200 mg QD, Cycle 34, Day 1): 13.5 (3.6) score on a scale
Change From Baseline in Overall Score on Lee cGvHD Symptom Scale, Mean (Standard Deviation) (cGVHD symptom burden; Cohort 1: 200 mg QD, Cycle 35, Day 1): −2.5 (23.3) score on a scale
Change From Baseline in Overall Score on Lee cGvHD Symptom Scale, Mean (Standard Deviation) (cGVHD symptom burden; Cohort 1: 200 mg QD, Cycle 36, Day 1): 7.5 (6.4) score on a scale
Change From Baseline in Overall Score on Lee cGvHD Symptom Scale, Mean (Standard Deviation) (cGVHD symptom burden; Cohort 1: 200 mg QD, Cycle 37, Day 1): −5.3 (29.0) score on a scale
Change From Baseline in Overall Score on Lee cGvHD Symptom Scale, Mean (Standard Deviation) (cGVHD symptom burden; Cohort 1: 200 mg QD, Cycle 38, Day 1): 9.1 (5.2) score on a scale
Change From Baseline in Overall Score on Lee cGvHD Symptom Scale, Mean (Standard Deviation) (cGVHD symptom burden; Cohort 1: 200 mg QD, Cycle 39, Day 1): −6.2 (25.9) score on a scale
Change From Baseline in Overall Score on Lee cGvHD Symptom Scale, Mean (Standard Deviation) (cGVHD symptom burden; Cohort 1: 200 mg QD, Cycle 40, Day 1): 2.7 (—) score on a scale
Change From Baseline in Overall Score on Lee cGvHD Symptom Scale, Mean (Standard Deviation) (cGVHD symptom burden; Cohort 1: 200 mg QD, Cycle 41, Day 1): −25.7 (—) score on a scale
Change From Baseline in Overall Score on Lee cGvHD Symptom Scale, Mean (Standard Deviation) (cGVHD symptom burden; Cohort 1: 200 mg QD, Cycle 42, Day 1): 4.6 (—) score on a scale
Change From Baseline in Overall Score on Lee cGvHD Symptom Scale, Mean (Standard Deviation) (cGVHD symptom burden; Cohort 1: 200 mg QD, Cycle 43, Day 1): −20.4 (—) score on a scale
Change From Baseline in Overall Score on Lee cGvHD Symptom Scale, Mean (Standard Deviation) (cGVHD symptom burden; Cohort 1: 200 mg QD, Cycle 44, Day 1): 4.3 (—) score on a scale
Change From Baseline in Overall Score on Lee cGvHD Symptom Scale, Mean (Standard Deviation) (cGVHD symptom burden; Cohort 1: 200 mg QD, Cycle 46, Day 1): 4.6 (—) score on a scale
Change From Baseline in Overall Score on Lee cGvHD Symptom Scale, Mean (Standard Deviation) (cGVHD symptom burden; Cohort 1: 200 mg QD, Cycle 47, Day 1): −6.8 (—) score on a scale
Change From Baseline in Overall Score on Lee cGvHD Symptom Scale, Mean (Standard Deviation) (cGVHD symptom burden; Cohort 1: 200 mg QD, Cycle 48, Day 1): 2.4 (—) score on a scale
Change From Baseline in Overall Score on Lee cGvHD Symptom Scale, Mean (Standard Deviation) (cGVHD symptom burden; Cohort 1: 200 mg QD, Cycle 50, Day 1): 4.5 (—) score on a scale
Change From Baseline in Overall Score on Lee cGvHD Symptom Scale, Mean (Standard Deviation) (cGVHD symptom burden; Cohort 1: 200 mg QD, Cycle 51, Day 1): −12.0 (—) score on a scale
Change From Baseline in Overall Score on Lee cGvHD Symptom Scale, Mean (Standard Deviation) (cGVHD symptom burden; Cohort 1: 200 mg QD, Cycle 52, Day 1): 6.0 (—) score on a scale
Change From Baseline in Overall Score on Lee cGvHD Symptom Scale, Mean (Standard Deviation) (cGVHD symptom burden; Cohort 1: 200 mg QD, Cycle 53, Day 1): −19.2 (—) score on a scale
Change From Baseline in Overall Score on Lee cGvHD Symptom Scale, Mean (Standard Deviation) (cGVHD symptom burden; Cohort 1: 200 mg QD, Cycle 54, Day 1): 4.9 (—) score on a scale
Change From Baseline in Overall Score on Lee cGvHD Symptom Scale, Mean (Standard Deviation) (cGVHD symptom burden; Cohort 1: 200 mg QD, Cycle 55, Day 1): −16.8 (—) score on a scale
Change From Baseline in Overall Score on Lee cGvHD Symptom Scale, Mean (Standard Deviation) (cGVHD symptom burden; Cohort 1: 200 mg QD, Cycle 56, Day 1): 1.8 (—) score on a scale
Change From Baseline in Overall Score on Lee cGvHD Symptom Scale, Mean (Standard Deviation) (cGVHD symptom burden; Cohort 1: 200 mg QD, Cycle 57, Day 1): −17.6 (—) score on a scale
Change From Baseline in Overall Score on Lee cGvHD Symptom Scale, Mean (Standard Deviation) (cGVHD symptom burden; Cohort 1: 200 mg QD, Cycle 58, Day 1): 5.4 (—) score on a scale
Change From Baseline in Overall Score on Lee cGvHD Symptom Scale, Mean (Standard Deviation) (cGVHD symptom burden; Cohort 1: 200 mg QD, Cycle 59, Day 1): −12.7 (—) score on a scale
Change From Baseline in Overall Score on Lee cGvHD Symptom Scale, Mean (Standard Deviation) (cGVHD symptom burden; Cohort 1: 200 mg QD, Cycle 60, Day 1): 4.2 (—) score on a scale
Change From Baseline in Overall Score on Lee cGvHD Symptom Scale, Mean (Standard Deviation) (cGVHD symptom burden; Cohort 1: 200 mg QD, Cycle 61, Day 1): −19.3 (—) score on a scale
Change From Baseline in Overall Score on Lee cGvHD Symptom Scale, Mean (Standard Deviation) (cGVHD symptom burden; Cohort 1: 200 mg QD, Cycle 62, Day 1): 4.4 (—) score on a scale
Change From Baseline in Overall Score on Lee cGvHD Symptom Scale, Mean (Standard Deviation) (cGVHD symptom burden; Cohort 1: 200 mg QD, Cycle 63, Day 1): −18.0 (—) score on a scale
Change From Baseline in Overall Score on Lee cGvHD Symptom Scale, Mean (Standard Deviation) (cGVHD symptom burden; Cohort 1: 200 mg QD, Cycle 67, Day 1): −21.9 (—) score on a scale
Change From Baseline in Overall Score on Lee cGvHD Symptom Scale, Mean (Standard Deviation) (cGVHD symptom burden; Cohort 1: 200 mg QD, EOT): −4.3 (11.7) score on a scale
LSS improvement, nonresponder, n/N (cGVHD symptom burden; Cohort 2 200 mg BID): 4/5
LSS improvement, responder, n/N (cGVHD symptom burden; Cohort 2 200 mg BID): 3/11
Change From Baseline in Overall Score on Lee cGvHD Symptom Scale, Mean (Standard Deviation) (cGVHD symptom burden; Cohort 2: 200 mg BID, Cycle 3, Day 1): 0.5 (7.3) score on a scale
Change From Baseline in Overall Score on Lee cGvHD Symptom Scale, Mean (Standard Deviation) (cGVHD symptom burden; Cohort 2: 200 mg BID, Cycle 5, Day 1): −3.7 (7.0) score on a scale
Change From Baseline in Overall Score on Lee cGvHD Symptom Scale, Mean (Standard Deviation) (cGVHD symptom burden; Cohort 2: 200 mg BID, Cycle 7, Day 1): −2.2 (8.8) score on a scale
Change From Baseline in Overall Score on Lee cGvHD Symptom Scale, Mean (Standard Deviation) (cGVHD symptom burden; Cohort 2: 200 mg BID, Cycle 8, Day 1): −7.1 (10.1) score on a scale
